Laboratory results: patent publication US20160303095A1, “METHODS OF TREATING HEPATITIS B VIRUS” (Gilead Sciences, Inc., priority 2015, published 2016)
pEC50: −log10 of the molar value. Where two headings read alike, the source gives them in different places.

Tests used:
HBV = assay: PHH screening protocol: HBsAg and HBeAg levels by MSD ELISA; format: cell-based, Hepatitis B Virus; conditions: for pEC50: Hepatitis B virus
Protocol: HBV antiviral activity was assessed in primary human hepatocytes (PHH) in a 96-well format. PHH were (Life Technologies, Chicago, 11) plated on collagen coated tissue culture plates using Plating Media containing William's Medium E supplemented with 1% Penicillin/Streptomycin, 4 μg/mL human recombinant insulin, 2 mM glutamax, 15 mM Hepes, 1 μM dexamethasone and 5% fetal bovine serum (Life Technologies, Cat#A12176-01 Life Technologies, Chicago, Ill.). After a 4-hour incubation at 37° C., cells were switched to Maintenance Media (Cat#CM4000-A15564 Life Technologies, Chicago, Ill.) containing William's Medium E supplemented with 0.5% Penicillin/Streptomycin, 6.25 μg/mL human recombinant insulin, 6.25 μg/mL human transferrin, 6.25 ng/mL selenous acid, 1.25 mg/mL bovine serum albumin, 5.35 μg/mL linoleic acid, 2 mM glutamax, 15 mM Hepes, 0.1 μM dexamethasone, 2% fetal bovine serum, and 2% DMSO (Cat#D2650 Sigma, St. Louis, Mo.). On the next day, cells were infected with approximately 500 genome equivalent of selected HBV clinical isolates (21P (GTA), 32P (GTA), 91P (GTA), AD38 (GTD), 65P (GTD) or 30P (GTE); ProteoGenex, Culver City, Calif.) per cell in Maintenance Media supplemented with 4% PEG 8000 (Cat#V3011 Promega, Madison, Wis.). After 24 hour incubation cells were washed three times with William's Medium E and fed with fresh Maintenance Media. Small molecule inhibitors targeting KDMs were serially diluted in Maintenance Media and added to cells at 3 days post infection (p.i.). Media with compounds was replenished every 2-3 days. Media collected on various days was used for determination of HBsAg and HBeAg levels by MSD ELISA, and HBV RNA by qPCR. All data were converted into percentages of the untreated control and non-linear regression was performed to calculate EC50 or CC50 values.

[1] = Alamar Blue cell viability assay; format: cell-based; conditions: human
Protocol: Alamar Blue cell viability reagent (Cat#DAL1100 Life Technologies, Chicago, Ill.) was diluted 1 to 10 in Maintenance Media and added to the cells. Cells were incubated for 4 h at 37° C. and the fluorescence signal, which is proportional to the number of live cells, was read using a fluorimeter with excitation/emission spectra set at 560/590 nm, respectively. Data were converted into percentages of the untreated control and non-linear regression was performed to calculate CC50 values.
PHH were plated in collagen coated tissue culture plates in Plating Media and after 4-hour incubation at 37° C., cells were switched to Maintenance Media. On the next day, the cells were infected with 500 genome equivalents per cell of Genotype-A clinical isolate 21P (ProteoGenex, Culver City, Calif.) in 100 μl Maintenance Media supplemented with 4% PEG 8000 (Cat#V3011 Promega, Madison, Wis.). After an overnight incubation the inoculum was removed and the cells were washed three times with William's Media E and maintained in Maintenance Media. […] Following the transfection, the cells were incubated at 37° C. in a humidified incubator and media was changed every 3-4 days. The assay was terminated on day 14 post infection and cell viability was assessed by Alamar Blue. The collected medium was used for determination of HBsAg and HBeAg levels by MSD ELISA while cells were processed for determination of HBV RNA using qPCR.

## CCOC(=O)c1ccnc(CNCC(=O)N(CC)CCN(C)C)c1 [Example 8]
HBV; 336 h, read-out: HBsAg EC50, virus AD38, PHH donor 8130, d 25, compound removed after 14 days of treatment
  pEC50: 7.10
HBV; 336 h, read-out: HBsAg EC50, virus AD38, PHH donor 8130, d 31, compound removed after 14 days of treatment
  pEC50: 7.92
HBV; 408 h, read-out: HBsAg EC50, virus 21P (GTA), PHH 4239, day 17 p.i.
  pEC50: 6.15
HBV; 408 h, read-out: HBsAg EC50, virus 21P (GTA), PHH 8130, day 17 p.i.
  pEC50: 6.70
HBV; 408 h, read-out: HBsAg EC50, virus 21P (GTA), PHH 8181, day 17 p.i.
  pEC50: 7.70
HBV; 408 h, read-out: HBsAg EC50, virus 30P (GTE), PHH 4239, day 17 p.i.
  pEC50: 6.52
HBV; 408 h, read-out: HBsAg EC50, virus 30P (GTE), PHH 8130, day 17 p.i.
  pEC50: 6.70
HBV; 408 h, read-out: HBsAg EC50, virus 30P (GTE), PHH 8181, day 17 p.i.
  pEC50: > 8.30
HBV; 408 h, read-out: HBsAg EC50, virus 32P (GTA), PHH 4239, day 17 p.i.
  pEC50: 7.52
HBV; 408 h, read-out: HBsAg EC50, virus 32P (GTA), PHH 8130, day 17 p.i.
  pEC50: 7.10
HBV; 408 h, read-out: HBsAg EC50, virus 32P (GTA), PHH 8181, day 17 p.i.
  pEC50: > 8.70
HBV; 408 h, read-out: HBsAg EC50, virus 65P (GTD), PHH 4239, day 17 p.i.
  pEC50: 6.52
HBV; 408 h, read-out: HBsAg EC50, virus 65P (GTD), PHH 8130, day 17 p.i.
  pEC50: 5.62
HBV; 408 h, read-out: HBsAg EC50, virus 65P (GTD), PHH 8181, day 17 p.i.
  pEC50: > 8.70
HBV; 408 h, read-out: HBsAg EC50, virus 91P (GTA), PHH 4239, day 17 p.i.
  pEC50: 7.22
HBV; 408 h, read-out: HBsAg EC50, virus 91P (GTA), PHH 8130, day 17 p.i.
  pEC50: 7.52
HBV; 408 h, read-out: HBsAg EC50, virus 91P (GTA), PHH 8181, day 17 p.i.
  pEC50: > 8.22
HBV; 408 h, read-out: HBsAg EC50, virus AD38 (GTD), PHH 4239, day 17 p.i.
  pEC50: 5.70
HBV; 408 h, read-out: HBsAg EC50, virus AD38 (GTD), PHH 8130, day 17 p.i.
  pEC50: 5.85
HBV; 408 h, read-out: HBsAg EC50, virus AD38 (GTD), PHH 8181, day 17 p.i.
  pEC50: > 8.30
HBV; read-out: EC50 values (HBsAg), PHH donors 4239 and 8130, across patient viruses
  pEC50: 5.62 to 7.52
HBV; read-out: HBeAg EC50, D 8, PHH donor 8181, virus 21p
  pEC50: < 4.30
HBV; read-out: HBeAg EC50, D 13, PHH donor 8181, virus 21p
  pEC50: 6.80
HBV; read-out: HBeAg EC50, D 17, PHH donor 8181, virus 21p
  pEC50: > 7.70
HBV; read-out: HBeAg EC50, D 22, PHH donor 8181, virus 21p
  pEC50: > 7.70
HBV; read-out: HBeAg EC50, D 27, PHH donor 8181, virus 21p
  pEC50: > 7.70
HBV; read-out: HBeAg EC50, D 31, PHH donor 8181, virus 21p
  pEC50: > 7.70
HBV; read-out: HBeAg EC50, HBV-infected PHH
  pEC50: 6.73
HBV; read-out: HBsAg EC50, D 8, PHH donor 8181, virus 21p
  pEC50: < 4.30
HBV; read-out: HBsAg EC50, D 13, PHH donor 8181, virus 21p
  pEC50: 6.82
HBV; read-out: HBsAg EC50, D 17, PHH donor 8181, virus 21p
  pEC50: > 7.70
HBV; read-out: HBsAg EC50, D 22, PHH donor 8181, virus 21p
  pEC50: > 7.70
HBV; read-out: HBsAg EC50, D 27, PHH donor 8181, virus 21p
  pEC50: > 7.70
HBV; read-out: HBsAg EC50, D 31, PHH donor 8181, virus 21p
  pEC50: > 7.70
HBV; read-out: HBsAg EC50, HBV-infected PHH
  pEC50: 7.17
HBV; PHH donor 8181
  inhibition of HBV HBsAg and HBeAg secretion compared to untreated cells: more than 10 fold
HBV; PHH donor 8181 infected with patient virus 21p (GTA)
  time dependency of anti HBV activity: time dependent
[1]
  CC50: 28.2 µM
